Results from US12577559B2, “Method for creating a cDNA sequencing library” (priority 2019, dated 2026).

Tested on: A549 cell line
Experiment: RIF-Seq gene expression screen of compounds in A549 cells, 384 well plate
Format: cell-based
Protocol: To evaluate if RIF-Seq can be used to detect changes in gene expression due to action of compounds (drugs) and if gene expression signatures can be used to predict mechanism of action of the compound, the inventors performed screen of two compounds in various concentration (delivered to cells in DMSO) and controls (DMSO alone) in high throughput fashion on automated platforms. A549 cell line was seeded using automatic cell dispenser onto low volume imaging plate to concentration of 2 000 cell per well. After over-night incubation, drugs were manually added to cells according to schematics presented in the FIG. 16A, cells were fixated and RIF-Seq protocol was executed using automated robotic liquid handlers. […] Using Gene Set Enrichment Analysis (GESA) inventors compared the differential gene expression data of samples treated with 8.3 μM vorinostat and controls and which differently expressed genes are annotated to pre-defined gene sets contained in the Broad Institute “Hallmarks” list (FIG. 16D).
Cells were cultured in T25 and T75 cell culturing flasks at 37° C. under 5% CO2 in RPMI1640 medium (HeLa, BjHTERT, MCF-7) or F12K medium (A549) with 10% complete fetal bovine serum (FBS), penicillin-streptomycin, and glutamine, up to 80% confluency. Before seeding cells into plates, cells were washed with PBS and dislodged using Tripsin-EDTA and resuspended in fresh medium to a concentration of 66 cells/μL. Manually (100 μL volume, 96 well plate) or by using automatic cell dispenser (30 μL volume, 384 well plate) cells were transferred into desired vessels and incubated over-night. For 96 well plates, the cell culture media were removed and plate was washed twice with 100 μl cold PBS in each well. Then 100 μl 3.7% PFA solution was added to each well and incubated at room temperature for 15 min. For 384 well plates, […] of freshly prepared 16% formaldehyde was added to 30 μl of cell media to obtain a final formaldehyde concentration of 3.7%. Fixation was performed for 20 minutes at room temperature. […]

For O=C(CCCCCCC(=O)Nc1ccccc1)NO [vorinostat], the “Volcano plot of genes over- and under-expressed upon treatment” value (8.3 μM concentration vs DMSO controls) was “number of genes with significantly altered expression”, the “Gene Set Enrichment Analysis (GESA) of differential gene expression against Broad Institute "Hallmarks" gene sets” value (8.3 μM vorinostat vs DMSO controls) was “down-regulation of the cell cycle and p53 pathways, E2F targets, cell cycle checkpoints and MYC targets” and the “PCA analyses of gene expression of compound-grouped samples vs DMSO controls” value (various concentrations) was “Gradient of differences”.
